Source: patent US20060263351A1, “Methods and compositions for protection against thrombolysis associated reperfusion injury” (The General Hospital Corporation, priority 2002, published 2006)
“Also recorded” adds a separate entry of the source.

Assays:
MMP-9 [1] = details: rats pre-treated intravenously with U0126 vs saline, 2 hr focal ischemia
Excerpt: In this investigation, rats were pre-treated with either saline or U0126 intravenously, then subjected to 2 hr focal ischemia. U0126 inhibits MEK, which is the upstream kinase that activates ERK.

MMP-2 [2] = test: Zymography of conditioned media, brain microvessel endothelial cells, MMP-2; assay type: cell-based; details: human brain endothelial cells
Experimental: (§1) Different doses of tPA were added to primary co-cultures of neurons/astrocytes from rat brain, or microvessel endothelial cells from human brain. Cytotoxicity assays of LDH release confirmed that these doses were not toxic, consistent with our previous published experience using tPA in vitro (Wang X, et al., Neurosci Lett 274:79-82, 1999). In addition, these doses are within range of plasma concentrations in patients treated with intravenous tPA (NINDS rt-PA Stroke Study Group, New Engl J Med 333:1581-1587, 1995).

MMP-2 [3] = test: Gelatin zymography of brain after embolic focal ischemia, MMP-2; assay type: in vivo, rat; details: tPA 10 mg/kg, 6 hrs post-ischemia; 12 hrs after embolic focal ischemia; vs saline
Excerpt: (§2) The use of BB-94 provided pharmacologic evidence that MMPs were involved in tPA-induced hemorrhage. The role of tPA in further increasing MMP levels was investigated (Sumii, T, E. H. Lo, Stroke 33:831-836, 2002; Aoki, T., et al., Stroke 33:2711-2717, 2002). At 12 hrs after embolic focal ischemia in rats, gelatin zymograms show an upregulation in MMP-9, as expected (FIG. 2A). […] This is an important point since MMP-9 is already produced in ischemic brain. The relevance of tPA-induced MMP-9 is dependent on how much more is released.

MMP-9 [4] = test: Zymography of conditioned media, neuron/astrocyte co-cultures, MMP-9; assay type: cell-based, rat; details: 24 hr exposure to tPA
Experimental: as §1

MMP-9 [5] = test: Gelatin zymography of brain after embolic focal ischemia, MMP-9; assay type: in vivo, rat; details: tPA 10 mg/kg, 6 hrs post-ischemia; 12 hrs after embolic focal ischemia; vs saline
Excerpt: as §2

[6] = system: primary co-cultures of neurons/astrocytes from rat brain; test: Cytotoxicity assay of LDH release, neuron/astrocyte co-cultures; assay type: cell-based; details: different doses of tPA
Experimental: as §1

p38 MAP kinase = test: Western blot of phospho-p38 after tPA exposure in vitro; assay type: cell-based; details: 40 μg/ml tPA; rat cultures
Excerpt: (§3) The presence of MMP upregulation following activation of various signaling pathways after tPA binds to LRP, was investigated. In this investigation, MAP kinase was examined.

MMP-9 [7] = test: tPA-induced MMP-9 production in wild-type murine embryonic fibroblasts (MEF-1); assay type: cell-based, mouse; details: wild-type MEF-1 cells
ERK = test: Western blot of phospho-ERK after tPA exposure in vitro; assay type: cell-based; details: 40 μg/ml tPA; rat cultures
Excerpt: as §3

MMP-9 [8] = test: Zymography of conditioned media, brain microvessel endothelial cells, MMP-9; assay type: cell-based, human
Experimental: as §1

MMP-9 [9] = test: tPA-induced MMP-9 production in LRP knockout murine embryonic fibroblasts (PEA-13); assay type: cell-based, mouse; details: LRP knockout PEA-13 cells
MMP-9 [10] = test: Gelatin zymography of brain after mechanical (filament) transient focal ischemia, MMP-9; assay type: in vivo, rat; details: 2 hr transient filament occlusion, reperfused 3, 6, or 24 hrs; tPA 10 mg/kg at onset of reperfusion; vs saline
Experimental: Similar findings were obtained in mechanical (filament) models of focal ischemia. Rats were subjected to transient occlusions for 2 hrs, then reperfused for 3, 6, or 24 hrs. Saline controls were compared with rats treated with 10 mg/kg of tPA at the onset of reperfusion.

[11] = system: microvessel endothelial cells from human brain; test: Cytotoxicity assay of LDH release, brain endothelial cells; assay type: cell-based; details: different doses of tPA
Experimental: as §1

Row | Compound | ischemic upregulation of MMP-9 (MMP-9 [1]) | dose- and time-dependence of tPA-induced MMP-2 release (MMP-2 [2]) | MMP-2 levels in brain (gelatin zymograms) (MMP-2 [3]) | secretion of MMP-9 (MMP-9 [4]) | MMP-9 levels in brain (gelatin zymograms) (MMP-9 [5]) | cytotoxicity (LDH release) [6] | activation of p38 MAP kinase pathway (phospho-p38) (p38 MAP kinase) | MMP-9 production (MMP-9 [7]) | activation of ERK pathway (phospho-ERK) (ERK) | secretion of MMP-9 (MMP-9 [8]; cerebral microvessel endothelial cells, 24 hr exposure to tPA) | dose- and time-dependence of tPA-induced MMP-9 release (MMP-9 [8]; human brain endothelial cells) | MMP-9 response (MMP-9 [9]) | upregulation of MMP-9 in brain (gelatin zymograms) (MMP-9 [10]) | cytotoxicity (LDH release) [11]
1 | N#CC(=C(/N)Sc1ccccc1N)/C(C#N)=C(\N)Sc1ccccc1N [U0126] | can attenuate ischemic upregulation of MMP-9; also recorded: attenuated MMP-9 levels |  |  |  |  |  |  |  |  |  |  |  |  | 
2 | tPA: tissue plasminogen activator (alteplase), thrombolytic agent |  | clear dose- and time-dependence | slightly increased but the difference did not reach statistical significance | clearly induced secretion of MMP-9; also recorded: increased MMP-9 secretion | more than doubled the production of MMP-9; also recorded: doubling of MMP-9 | not toxic | activation; also recorded: rapidly activated | induced MMP-9 production | activation of ERK; also recorded: rapidly activated | clearly induced secretion of MMP-9; also recorded: increased MMP-9 secretion | clear dose- and time-dependence | no tPA-induced MMP-9 response; also recorded: no significant response | clearly amplified the upregulation of MMP-9; also recorded: MMP-9 is amplified | not toxic
